Test results: patent US10597388B2, “Pyridazinone herbicides” (FMC CORPORATION, priority 2014, dated 2020)

Experiments:
Type in all cases: in vivo
[1] = tested on: wheat (Triticum aestivum); experiment: Test A greenhouse herbicide test, pre- and postemergence; conditions: Postemergence
Procedure, shortened: (§1)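 Seeds in loam–sand blend received a preemergence directed soil spray; plants at 2–10 cm, one- to two-leaf stage, received postemergence sprays. Compounds in a non-phytotoxic solvent with surfactant. After about 10 d in a greenhouse, injury rated visually versus untreated controls on a 0–100 scale (100 = complete control).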

[2] = tested on: foxtail, giant (giant foxtail, Setaria faberii); experiment: as above
Procedure, shortened: as §1

[3] = tested on: ryegrass, Italian (Italian ryegrass, Lolium multiflorum); experiment: as above
Procedure, shortened: as §1

[4] = tested on: ragweed (common ragweed, Ambrosia elatior); experiment: as above
Procedure, shortened: as §1

kochia (Kochia scoparia) = experiment: as above
Procedure, shortened: as §1

[5] = tested on: pigweed (Amaranthus retroflexus); experiment: as above
Procedure, shortened: as §1

corn (Zea mays) = experiment: as above; conditions: Postemergence
Procedure, shortened: as §1

[6] = tested on: barnyardgrass (Echinochloa crus-galli); experiment: as above
Procedure, shortened: as §1

[7] = tested on: nutsedge, yellow (yellow nutsedge, Cyperus esculentus); experiment: Test C greenhouse herbicide test, pre- and postemergence
Procedure, shortened: (§2)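 Seeds sown in loam–sand blend treated preemergence; plants in peat-based medium sprayed postemergence at 2–18 cm (1- to 4-leaf stage); chemicals in non-phytotoxic solvent with surfactant. Greenhouse 13–15 d, then visual rating versus controls on 0–100 scale (0 no effect, 100 complete control).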

[8] = tested on: ryegrass, Italian (Italian ryegrass, Lolium multiflorum); experiment: as above
Procedure, shortened: as §2

[9] = tested on: lambsquarters (Chenopodium album); experiment: as above
Procedure, shortened: as §2

[10] = 125 g ai/ha, 0 to 100 scale where 0 is no effect and 100 is complete control
[11] = 500 g ai/ha, visual rating after approx. 10 d, 0 to 100 scale (0 no effect, 100 complete control)
[12] = Postemergence, 125 g ai/ha, 0 to 100 scale where 0 is no effect and 100 is complete control
[13] = Postemergence, 500 g ai/ha, visual rating after approx. 10 d, 0 to 100 scale (0 no effect, 100 complete control)
[14] = Preemergence, 125 g ai/ha, 0 to 100 scale where 0 is no effect and 100 is complete control
[15] = Preemergence, 500 g ai/ha, 0 to 100 scale where 0 is no effect and 100 is complete control
[16] = Postemergence, 31 g ai/ha, scale 0 to 100 (0 no effect, 100 complete control)
[17] = Postemergence, 125 g ai/ha, scale 0 to 100, 0 is no effect, 100 is complete control
[18] = Postemergence, 250 g ai/ha, scale 0 to 100, 0 no effect, 100 complete control, 13 to 15 d
[19] = Preemergence, 31 g ai/ha, scale 0 to 100, 0 is no effect, 100 is complete control
[20] = Preemergence, 62 g ai/ha, scale 0 to 100, 0 is no effect, 100 is complete control
[21] = Preemergence, 125 g ai/ha, scale 0 to 100, 0 is no effect, 100 is complete control
[22] = Preemergence, 250 g ai/ha, scale 0 to 100 (0 no effect, 100 complete control)

CCC(=O)Oc1c(Cl)nn(C)c(=O)c1-c1c(C)sc2ccc(Cl)cc12 [Compound 111]
40: Plant response rating, Kochia (kochia (Kochia scoparia); [12]) | Plant response rating, Barnyardgrass [6, 12]
60: Kochia plant response rating (kochia (Kochia scoparia); [14])
100: Plant response rating, Foxtail, Giant [2, 13] | Plant response rating, Foxtail, Giant [2, 15] | Plant response rating, Ryegrass, Italian [3, 13] | Plant response rating, Ryegrass, Italian [3, 15] | Plant response rating, Ragweed [4, 13] | Plant response rating, Kochia (kochia (Kochia scoparia); [15]) | Plant response rating, Pigweed [5, 12] | Plant response rating, Pigweed [5, 13] | Plant response rating, Pigweed [5, 15] | Plant response rating, Barnyardgrass [6, 15] | Plant response rating, Lambsquarters [9, 17] | Plant response rating, Lambsquarters [9, 18]
75: Plant response rating, Nutsedge, Yellow [7, 18] | Plant response rating, Nutsedge, Yellow [7, 21]
80: Foxtail, Giant plant response rating [2, 14] | Ragweed plant response rating [4, 14]
35: Plant response rating, Nutsedge, Yellow [7, 16]
10: Plant response rating, Ryegrass, Italian [8, 19]
70: Plant response rating, Foxtail, Giant [2, 12] | Plant response rating, Ragweed [4, 12] | Barnyardgrass plant response rating [6, 14]
85: Plant response rating, Ryegrass, Italian [8, 16] | Plant response rating, Ryegrass, Italian [8, 21]
90: Plant response rating, Ryegrass, Italian [3, 12] | Ryegrass, Italian plant response rating [3, 14] | Plant response rating, Ragweed [4, 15] | Plant response rating, Kochia (kochia (Kochia scoparia); [13]) | Pigweed plant response rating [5, 14] | Plant response rating, Barnyardgrass [6, 13] | Nutsedge, Yellow plant response rating [7, 22] | Plant response rating, Ryegrass, Italian [8, 20] | Plant response rating, Lambsquarters [9, 16] | Plant response rating, Lambsquarters [9, 19] | Plant response rating, Lambsquarters [9, 21]
20: Plant response rating, Wheat [1, 10] | Plant response rating, Corn (corn (Zea mays); [11]) | Plant response rating, Nutsedge, Yellow [7, 20]
65: Plant response rating, Nutsedge, Yellow [7, 17]
95: Plant response rating, Ryegrass, Italian [8, 17] | Plant response rating, Ryegrass, Italian [8, 18] | Ryegrass, Italian plant response rating [8, 22] | Plant response rating, Lambsquarters [9, 20] | Lambsquarters plant response rating [9, 22]
30: Plant response rating, Wheat [1, 11]
0: Plant response rating, Corn (corn (Zea mays); [10]) | Plant response rating, Nutsedge, Yellow [7, 19]

Cc1sc2ccc(Cl)cc2c1-c1c(OS(C)(=O)=O)c(Cl)nn(C)c1=O [Compound 114]
60: Plant response rating, Kochia (kochia (Kochia scoparia); [13]) | Plant response rating, Ryegrass, Italian [8, 16]
40: Plant response rating, Wheat [1, 11] | Foxtail, Giant plant response rating [2, 14] | Plant response rating, Nutsedge, Yellow [7, 20] | Plant response rating, Ryegrass, Italian [8, 19]
20: Plant response rating, Wheat [1, 10] | Plant response rating, Barnyardgrass [6, 12]
85: Plant response rating, Ryegrass, Italian [8, 20]
65: Plant response rating, Nutsedge, Yellow [7, 21]
95: Nutsedge, Yellow plant response rating [7, 22] | Plant response rating, Ryegrass, Italian [8, 18] | Ryegrass, Italian plant response rating [8, 22] | Plant response rating, Lambsquarters [9, 16] | Lambsquarters plant response rating [9, 22]
30: Plant response rating, Kochia (kochia (Kochia scoparia); [12]) | Kochia plant response rating (kochia (Kochia scoparia); [14]) | Plant response rating, Corn (corn (Zea mays); [11]) | Barnyardgrass plant response rating [6, 14]
80: Ryegrass, Italian plant response rating [3, 14] | Plant response rating, Ragweed [4, 13] | Ragweed plant response rating [4, 14] | Plant response rating, Barnyardgrass [6, 15] | Plant response rating, Ryegrass, Italian [8, 17]
35: Plant response rating, Nutsedge, Yellow [7, 18]
10: Plant response rating, Nutsedge, Yellow [7, 16] | Plant response rating, Nutsedge, Yellow [7, 19]
70: Plant response rating, Foxtail, Giant [2, 12] | Plant response rating, Ragweed [4, 12]
98: Plant response rating, Lambsquarters [9, 20]
100: Plant response rating, Kochia (kochia (Kochia scoparia); [15]) | Pigweed plant response rating [5, 14] | Plant response rating, Pigweed [5, 15] | Plant response rating, Lambsquarters [9, 17] | Plant response rating, Lambsquarters [9, 18]
90: Plant response rating, Foxtail, Giant [2, 13] | Plant response rating, Foxtail, Giant [2, 15] | Plant response rating, Ryegrass, Italian [3, 12] | Plant response rating, Ryegrass, Italian [3, 13] | Plant response rating, Ryegrass, Italian [3, 15] | Plant response rating, Ragweed [4, 15] | Plant response rating, Pigweed [5, 12] | Plant response rating, Pigweed [5, 13] | Plant response rating, Barnyardgrass [6, 13] | Plant response rating, Ryegrass, Italian [8, 21] | Plant response rating, Lambsquarters [9, 19] | Plant response rating, Lambsquarters [9, 21]
0: Plant response rating, Corn (corn (Zea mays); [10])
25: Plant response rating, Nutsedge, Yellow [7, 17]

Cc1nn(C)c(=O)c(-c2cc(F)cc3ccccc23)c1OS(C)(=O)=O [Compound 115]
0: Plant response rating, Corn (corn (Zea mays); [10])
90: Plant response rating, Foxtail, Giant [2, 13] | Plant response rating, Ragweed [4, 15] | Plant response rating, Kochia (kochia (Kochia scoparia); [13]) | Plant response rating, Kochia (kochia (Kochia scoparia); [15]) | Plant response rating, Pigweed [5, 13] | Plant response rating, Barnyardgrass [6, 13] | Plant response rating, Ryegrass, Italian [8, 16] | Plant response rating, Lambsquarters [9, 17]
40: Ragweed plant response rating [4, 14] | Plant response rating, Nutsedge, Yellow [7, 16]
80: Plant response rating, Ragweed [4, 12] | Plant response rating, Nutsedge, Yellow [7, 18]
70: Plant response rating, Kochia (kochia (Kochia scoparia); [12]) | Plant response rating, Pigweed [5, 12] | Pigweed plant response rating [5, 14] | Plant response rating, Lambsquarters [9, 16]
95: Plant response rating, Ryegrass, Italian [8, 17] | Plant response rating, Ryegrass, Italian [8, 18]
100: Plant response rating, Ryegrass, Italian [3, 12] | Plant response rating, Ryegrass, Italian [3, 13] | Ryegrass, Italian plant response rating [3, 14] | Plant response rating, Ryegrass, Italian [3, 15] | Plant response rating, Ragweed [4, 13] | Plant response rating, Pigweed [5, 15]
98: Plant response rating, Lambsquarters [9, 18]
20: Plant response rating, Wheat [1, 10] | Plant response rating, Foxtail, Giant [2, 12] | Plant response rating, Corn (corn (Zea mays); [11]) | Plant response rating, Barnyardgrass [6, 12]
50: Plant response rating, Foxtail, Giant [2, 15] | Plant response rating, Barnyardgrass [6, 15]
65: Plant response rating, Nutsedge, Yellow [7, 17]
10: Barnyardgrass plant response rating [6, 14]
30: Plant response rating, Wheat [1, 11] | Foxtail, Giant plant response rating [2, 14] | Kochia plant response rating (kochia (Kochia scoparia); [14])
